Assay results as given in paper PMC4528135, “Kinetic Investigations of the Role of Factor Inhibiting Hypoxia-inducible Factor (FIH) as an Oxygen Sensor” (The Journal of Biological Chemistry, 2015).
Where “and” joins values, the source holds several entries; their conditions need not be identical. Equal values may be shown once.

Columns and labels:
FIH [1] = target: T1, FIH (Homo sapiens, UniProt Q9NWT6); test: Rapid quench-flow, FIH pre-steady-state product and succinate formation; type: biochemical; details: for Rapid quench-flow kproduct / Rapid quench-flow ksuccinate: 0.5 mM apo-FIH, 0.4 mM Fe(II), 5 mM 2OG, 1 mM substrate, 50 mM HEPES pH 7.5, O2-saturated buffer 1:1, 5 °C, quenched with 1% CF3CO2H; for Rapid quench-flow kproduct: hydroxylation by MALDI-TOF-MS, 1–3 separate experiments; for Rapid quench-flow ksuccinate: succinate by LC-MS
T1 construct: Full-length recombinant FIH, two- and three-consensus ankyrin repeats (2CA and 3CA) were produced as described; His6 (cleaved yes); made in house; host or cells: Escherichia coli BL21(DE3)
Method: Rapid quench-flow experiments were performed using the same conditions and preparation of the assay mixture as used in stopped-flow experiments. Rapid quench-flow equipment (TgK Scientific Ltd.) in an anaerobic glove box was used for the experiments. Samples were quenched with 1% CF3CO2H and analyzed using MALDI-TOF-MS (peptide hydroxylation) as described above or liquid chromatography-mass spectrometry (LC-MS, for succinate production). For LC-MS, chromatographic separation was performed at 50 °C using a Waters ACQUITY BEH Amide 1.7-μm, 2.1 × 100-mm column on a Waters ACQUITY^TM ultraperformance liquid chromatography system (Waters Corp., Milford, MA). The following eluents were used: mobile phase A: 10% H2O, 90% acetonitrile (v/v), 10 mM ammonium formate; mobile phase B: 50% H2O, 50% acetonitrile (v/v), 10 mM ammonium formate. The elution gradient was 0–7.0 min linear from 10 to 30% B, and 7.0–9.0 min at 10% B for re-equilibration of the column. A constant flow rate of 0.4 ml/min was used. Analytes were detected in negative ionization mode using single reaction monitoring on a Quattro triple quadrupole mass spectrometer (Waters) with a cone voltage of 15 V and a capillary voltage of 3.0 kV. The desolvation temperature was set to 250 °C, and the source temperature was set to 120 °C.
FIGURE 9. Rapid quench-flow experiments showing FIH-catalyzed hydroxylation of HIF-1/2α CAD and ARD substrates. Reaction mixtures containing anaerobic 0.5 mM apo-FIH, 0.4 mM Fe(II), 5 mM 2OG, 1 mM peptide in HEPES 50 mM (pH 7.5) were rapidly mixed with O2-saturated buffer at 5 °C in a 1:1 ratio and then quenched with 1% CF3CO2H at defined time points. The data were fitted with the function, y = a·(1 − exp(−bx)) + c. Hydroxylation levels were assessed by MALDI-TOF-MS. A, hydroxylation of HIF-1α CAD, 1CA, and tankyrase-1 peptide substrates (19- and 20-mers); B, hydroxylation of HIF-1α, HIF-2α, and tankyrase-1 35-mer peptide substrates; C, hydroxylation of 1CA, 2CA, and 3CA. Data plotted were cumulatively acquired over the course of 1–3 separate experiments.

FIH [2] = target: T1, FIH; test: Stopped-flow UV-visible spectroscopy, FIH·Fe(II)·2OG·substrate + O2; type: biochemical; details: anaerobic 0.5 mM FIH, 1 mM substrate, 5 mM 2OG, 0.4 mM Fe(II), 50 mM HEPES pH 7.5, mixed 1:1 with O2-saturated buffer at 5 °C; double exponential fit
Method: Stopped-flow UV-visible spectroscopy experiments were performed as described previously ([32], [42]). Anerobically prepared assay mixtures containing 0.5 mM apo-FIH, 1 mM substrate, 5 mM 2OG, 0.4 mM Fe(II) or 0.8 mM apo-PHD2, 1 mM substrate, 5 mM 2OG, 0.5 mM Fe(II) were rapidly mixed with O2-free/O2-saturated buffer. The reaction was observed over 1000 s using a photodiode array detector, and kinetic traces were analyzed using Origin version 8.51 software. Data were fitted with a double exponential function (y = A1 × exp(−kriset) + A2 × exp(−kfallt) + y0). The A1, A2, and y0 parameters were restricted with upper limits to match the observed amplitude/offset changes.
Kinetic traces were fitted using a double exponential function; the fitting parameters of intermediate formation and decay are summarized in Table 3.
FIGURE 10. Stopped-flow UV-visible absorbance changes upon FIH-catalyzed hydroxylation of HIF-1/2α CAD and ARD substrates. Reaction mixtures containing anaerobic 0.5 mM apo-FIH, 0.4 mM Fe(II), 5 mM 2OG, and 1 mM peptide in HEPES 50 mM (pH 7.5) were rapidly mixed with O2-saturated buffer at 5 °C in 1:1 ratio and analyzed using a photodiode array detector. The data were fitted with a double exponential function. A, decay at 500 nm (representing enzyme·substrate complex depletion) observed upon FIH-catalyzed hydroxylation of ARD substrates compared with HIF-1/2α CAD. B, formation and degradation of 310 nm species observed upon FIH-catalyzed HIF-1/2α CAD and ARD hydroxylation. C, decay at 500 nm observed upon FIH-catalyzed hydroxylation of 1CA, 2CA, and 3CA substrates.

T1 sequence (Q9NWT6 whole entry): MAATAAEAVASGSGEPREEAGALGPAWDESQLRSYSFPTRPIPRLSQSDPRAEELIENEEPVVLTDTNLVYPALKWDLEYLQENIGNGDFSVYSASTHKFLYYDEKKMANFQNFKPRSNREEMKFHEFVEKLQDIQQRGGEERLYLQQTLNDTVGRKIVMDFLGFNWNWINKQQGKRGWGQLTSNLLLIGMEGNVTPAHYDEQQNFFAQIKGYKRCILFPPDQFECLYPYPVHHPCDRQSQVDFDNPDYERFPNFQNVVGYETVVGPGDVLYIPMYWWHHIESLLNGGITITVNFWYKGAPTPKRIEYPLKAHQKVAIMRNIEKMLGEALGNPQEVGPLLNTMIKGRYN

Sequence | Rapid quench-flow kproduct (FIH [1]) | Rapid quench-flow kproduct (FIH [1]; listed as tnkrs-1_35mer) [s⁻¹] | Rapid quench-flow ksuccinate (FIH [1]) [s⁻¹] | product formation rate, fold faster than for the 20-mer (FIH [1]; rapid quench-flow, 5 °C) [fold] | Stopped-flow, 500 nm (FIH) kfall phase (FIH [2]) [s⁻¹] | Stopped-flow, 500 nm (FIH) krise phase (FIH [2]) | Rapid quench-flow kproduct (FIH [1]; listed as CAD HIF-1α35-mer) [s⁻¹] | product accumulation rate, fold faster than the reaction with HIF 35-mer substrates (FIH [1]; rapid quench-flow, 5 °C) [fold]
AAGYNNLEVAEYLLEHGADVNAQDKGGLIPLHNAA [tnkrs-1_35-mer, 35-mer fragment of tankyrase-1, ARD substrate of FIH] | 11 ± 3 s⁻¹ | 11 | 10 ± 3 | ~7 | 14.8 ± 0.2 | 0.27 ± 0.03 s⁻¹ |  | 
DESGLPQLTSYDCEVNAPIQGSRNLLQGEELLRAL [HIF-1α CAD35-mer] | 0.33 s⁻¹ |  | 0.3 ± 0.1 |  | 4.5 ± 0.3 | 0.009 ± 0.005 s⁻¹ | 0.33 ± 0.07 | 
ESYLLPELTRYDCEVNVPVLGSSTLLQGGDLLRAL [HIF-2α CAD35-mer] | 0.12 ± 0.01 s⁻¹ |  | 0.11 ± 0.03 |  | 4.9 ± 0.2 | 0.017 ± 0.01 s⁻¹ |  | 
GSHMGSDLGKKLLEAARAGQDDEVRILMANGADVAAKDKNGSTPLHLAARNGHLEVVKLLLEAGADVNAQDKFGKTAFDISIDNGNEDLAEILQ [3CA, recombinant three-consensus ankyrin repeat protein produced in Escherichia coli] | 0.051 s⁻¹ and 0.051 ± 0.001 s⁻¹ |  |  |  | 10.5 ± 0.1 | 1.7 s⁻¹ and 1.7 ± 0.3 s⁻¹ |  | 
HLEVVKLLLEAGADVNAQDK [1CA20-mer] | 1.3 ± 0.2 s⁻¹ |  | 0.8 ± 0.3 |  | 17.6 ± 0.1 | 0.4 ± 0.1 s⁻¹ |  | ~10
SDKNGSTPLHLAARNGHLEVVKLLLEHGADVNAQDKWGKTAFDISIDNGNEDLAEILQ [2CA, recombinant two-consensus ankyrin repeat protein produced in Escherichia coli] | 0.5 ± 0.1 s⁻¹ |  |  |  | 11.9 ± 0.2 | 0.6 ± 0.1 s⁻¹ |  | 
